Target: T1, GABAA1 (α1β2γ2) receptor (Homo sapiens, UniProt P14867+P47870)
T1 construct: expressed in transfected cells
Test: Patch-clamp electrophysiology on recombinant GABAA1 receptor in HEK293 cells, with 3 μM GABA
Format: cell-based
Details: for Emax at 0.1 µM: 0.1 μM compound together with 3 μmol GABA; for Emax at 0.1 µM / Emax at 1 µM: read-out: potency: ratio of the peak current on the GABAA1 receptor to the peak current in 100 μmol GABA; for Emax at 1 µM: 1 μM compound together with 3 μmol GABA
Experimental: The present invention applies the two subunits of the recombinant GABAA receptor: α1β2γ2 and α4β3δ to evaluate the potency of the exemplary compounds in vitro by patch-clamp electrophysiology.
Extracellular fluid: 140 mM NaCl, 5 mM CsCl, 2 mM CaCl2·2H2O, 1 mM MgCl2·6H2O, 5 mM HEPES, 10 mM D-Glucose, pH=7.4 (NaOH).
Intracellular fluid: 130 mM CsCl, 0.1 mM CaCl2·H2O, 2 mM MgCl2·6H2O, 1.1 mM EGTA, 5 mM Na2-ATP, 10 mM HEPES, pH=7.2 (CsOH).
The HEK293 cells line stably expressing GABAA (α1β2γ2) receptors was cultured in Dulbecco's Modified Eagle Medium (DMEM) supplemented with 10% fetal bovine serum, 800 μg/mL G418, 200 μg/mL Hygromycin B and 100 μg/mL Zeocin. Cells were grown in a humidified incubator at 37° C. with 5% carbon dioxide.
Before manual patch clamp test, the cells were detached using 0.25%-Trypsin-EDTA solution. Then 8×10^3 cells were plated onto coverslips, and cultured in a 24-well plate (final medium volume: 500 μL) and tested after 18 hours by patch clamp.
Glass pipette (BF 150-86-10, Sutter Instruments) was pulled using a micropipette puller (P97, Sutter Instruments). The glass pipette was manipulated using a micro-manipulator (MP285, Sutter Instruments) under the microscope (IX71, Olympus). After touching the cell, a slight suction was applied to achieve high seal resistance (GQ). Fast capacitance (in pF) compensation was made after achieving high seal, and the membrane was broken. Cell capacitance (in pF) compensation was made from whole-cell capacitance compensation after the whole cell mode was achieved. No leak subtraction was made.
The test and control solutions flowed into a recording chamber mounted on the stage of an inverted microscope via a gravity-fed solution delivery system. During the experiment, solutions were withdrawn from the recording chamber by vacuum aspiration. Each concentration was tested at multiple times. All tests were performed at room temperature.
Whole cell model recorded GABAA1 receptors current experimental protocol was indicated as follows: When sealing, cell was at a holding potential of −70 mV, with gap-free mode to record the peak current. The cell would be applied with 3 μM GABA to active current. After the test articles application for 30 s, each concentration of test articles was applied with 3 μM GABA followed by 2 minutes washout using extracellular solution. Finally, 100 μM GABA was used as a positive control. The data were collected by EPC-10 amplifier and stored in PatchMaster (HEKA) software.
The following criteria are used to determine whether the data is acceptable: • (1) Electrode resistance <5MΩ • (2) Seal resistance >1GΩ • (3) The start of access resistance <15 MΩ • (4) The end of access resistance <15 MΩ • (5) No obvious spontaneous current decay. • (6) No obvious current leakage when the membrane potential is-70 mv. 56.6 Data Analysis
In the detection of GABAA1, the currents of 3 μM GABA and different concentrations of test compounds were respectively normalized to the current of 100 μM GABA
[formula] and then the activation rate corresponding to each concentration was calculated.
[formula] and then the activation rate corresponding to each concentration was calculated. Means, Standard Deviation and Standard Error were calculated for each test group. EC50 value was calculated using nonlinear regression: Y=Bottom+(Top−Bottom)/(1+10^((Log EC50−X)×HillSlope))
To fit data to the concentration-response, EC50 was the concentration giving a half-maximum effect and Hillslope was the Hill coefficient. Curve-fitting and EC50 calculations were performed using Graphpad5.0 software.
Emax is defined as the ratio of the peak current generated on the GABAA1 receptor to the peak current generated only in 100 μmol of GABA and the ratio is multiplied by 100%. The peak current generated on the GABAA1 receptor is that the exemplary compounds act on the GABAA1 receptor together with 3 μmol GABA.

T1 sequence (P14867 28-456): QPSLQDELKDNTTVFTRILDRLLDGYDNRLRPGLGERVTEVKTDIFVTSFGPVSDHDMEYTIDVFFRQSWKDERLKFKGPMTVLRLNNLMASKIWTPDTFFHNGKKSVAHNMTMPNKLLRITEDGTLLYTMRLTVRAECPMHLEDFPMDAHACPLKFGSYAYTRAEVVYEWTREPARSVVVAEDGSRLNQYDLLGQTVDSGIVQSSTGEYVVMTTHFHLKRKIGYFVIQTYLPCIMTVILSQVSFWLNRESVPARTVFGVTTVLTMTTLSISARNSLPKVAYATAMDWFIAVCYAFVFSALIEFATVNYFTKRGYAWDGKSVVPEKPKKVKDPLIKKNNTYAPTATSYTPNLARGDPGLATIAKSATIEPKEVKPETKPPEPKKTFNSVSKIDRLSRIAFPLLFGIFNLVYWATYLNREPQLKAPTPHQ
T1 sequence (P47870 26-512): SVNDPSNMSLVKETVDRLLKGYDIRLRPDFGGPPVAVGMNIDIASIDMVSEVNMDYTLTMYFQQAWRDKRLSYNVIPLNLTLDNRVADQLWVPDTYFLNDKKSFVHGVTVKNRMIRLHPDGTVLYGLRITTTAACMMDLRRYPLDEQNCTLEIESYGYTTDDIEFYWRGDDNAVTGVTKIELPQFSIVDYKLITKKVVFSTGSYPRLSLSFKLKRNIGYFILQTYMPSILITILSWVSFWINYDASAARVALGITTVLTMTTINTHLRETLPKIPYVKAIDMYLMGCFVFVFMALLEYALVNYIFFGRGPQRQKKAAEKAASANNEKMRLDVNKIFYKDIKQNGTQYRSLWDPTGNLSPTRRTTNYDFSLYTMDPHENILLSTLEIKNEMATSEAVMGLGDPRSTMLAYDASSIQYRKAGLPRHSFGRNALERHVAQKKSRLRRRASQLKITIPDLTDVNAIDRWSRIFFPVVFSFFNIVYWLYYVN
T1 sequence (P18507 40-475 partner): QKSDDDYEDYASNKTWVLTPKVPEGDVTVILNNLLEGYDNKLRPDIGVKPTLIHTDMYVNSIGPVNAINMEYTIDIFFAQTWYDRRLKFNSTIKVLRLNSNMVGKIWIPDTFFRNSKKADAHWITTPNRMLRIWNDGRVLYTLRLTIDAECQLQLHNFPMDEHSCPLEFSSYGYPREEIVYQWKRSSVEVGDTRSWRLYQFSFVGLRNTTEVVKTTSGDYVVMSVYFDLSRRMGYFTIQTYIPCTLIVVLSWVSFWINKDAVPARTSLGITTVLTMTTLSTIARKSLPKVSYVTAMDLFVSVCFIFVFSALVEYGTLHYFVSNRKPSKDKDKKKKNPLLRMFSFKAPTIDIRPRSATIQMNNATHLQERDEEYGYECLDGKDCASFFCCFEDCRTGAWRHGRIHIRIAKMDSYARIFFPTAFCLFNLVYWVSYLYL

| SMILES | Emax at 0.1 µM (HEK293) | Emax at 1 µM (HEK293) | Emax (HEK293, together with 3 μmol GABA, relative to peak current in 100 μmol GABA) | EC50 (together with 3 μmol GABA) |
| --- | --- | --- | --- | --- |
| C[C@]12CC[C@@H](O)C[C@@H]1CC[C@@H]1[C@@H]2CC[C@]2(C)[C@@H](C(=O)CN3CC4(COC4)C3)CCC[C@@H]12 [KH020] | 0 to 20% | 0 to 20% | – | – |
| Cn1nnnc1SCC(=O)[C@H]1CCC[C@H]2[C@@H]3CC[C@@H]4C[C@](C)(O)CC[C@@H]4[C@H]3CC[C@]12C [KH047] | 0 to 20% | 0 to 20% | – | – |
| Cc1cccc2c(OCC(=O)[C@H]3CCC[C@H]4[C@@H]5CC[C@H]6C[C@](C)(O)CC[C@]6(C)[C@H]5CC[C@]34C)ncnc12 [KH029] | 0 to 20% | 0 to 20% | – | – |
| C[C@]12CC[C@@H](O)C[C@@H]1CC[C@@H]1[C@@H]2CC[C@]2(C)[C@@H](C(=O)Cn3cc(C#N)cn3)CCC[C@@H]12 [KH002] | 0 to 20% | 60 to 80% | 74.6% | 0.464 µM |
| C[C@]12CC[C@@H](O)C[C@@H]1CC[C@@H]1[C@@H]2CC[C@]2(C)[C@@H](C(=O)Cn3cnc4cncnc43)CCC[C@@H]12 [KH012] | 0 to 20% | 60 to 80% | – | – |
| C[C@@]1(O)CC[C@@]2(C)[C@@H](CC[C@@H]3[C@@H]2CC[C@]2(C)[C@@H](C(=O)CO)CCC[C@@H]32)C1 [KH042] | 0 to 20% | 40 to 60% | – | – |
| C[C@]12CC[C@@H](O)C[C@@H]1CC[C@@H]1[C@@H]2CC[C@]2(C)[C@@H](C(=O)Cn3cc(C(F)(F)F)cn3)CCC[C@@H]12 [KH010] | 0 to 20% | 20 to 40% | – | – |
| C[C@@]1(O)CC[C@@]2(C)[C@@H](CC[C@@H]3[C@@H]2CC[C@]2(C)[C@@H](C(=O)Cn4ccc(C#N)n4)CCC[C@@H]32)C1 [KH024] | 0 to 20% | 40 to 60% | – | – |
| C[C@]12CC[C@@H](O)C[C@@H]1CC[C@@H]1[C@@H]2CC[C@]2(C)[C@@H](C(=O)Cn3ccc(C#N)n3)CCC[C@@H]12 [KH008] | 20 to 40% | > 80% | – | – |
| CC(=O)[C@H]1CCC[C@H]2[C@@H]3CC[C@H]4C[C@](C)(O)CC[C@]4(C)[C@H]3CC[C@]12C [KH021] | 0 to 20% | 0 to 20% | – | – |
| C[C@@]1(O)CC[C@@]2(C)[C@@H](CC[C@@H]3[C@@H]2CC[C@]2(C)[C@@H](C(=O)COc4ccon4)CCC[C@@H]32)C1 [KH038] | 0 to 20% | 40 to 60% | – | – |
| C[C@]12CC[C@@H](O)C[C@@H]1CC[C@@H]1[C@@H]2CC[C@]2(C)[C@@H](C(=O)CO)CCC[C@@H]12 [KH014] | 0 to 20% | 40 to 60% | – | – |
| C[C@@]1(O)CC[C@H]2[C@H](CC[C@@H]3[C@@H]2CC[C@]2(C)[C@@H](C(=O)COc4ncnc5cnc(F)cc45)CCC[C@@H]32)C1 [KH048] | 0 to 20% | 0 to 20% | – | – |
| C[C@@]1(O)CC[C@@]2(C)[C@@H](CC[C@@H]3[C@@H]2CC[C@]2(C)[C@@H](C(=O)COc4nc5ccccc5o4)CCC[C@@H]32)C1 [KH028] | 0 to 20% | 0 to 20% | – | – |
| C[C@]12CC[C@@H](O)C[C@@H]1CC[C@@H]1[C@@H]2CC[C@]2(C)[C@@H](C(=O)Cn3ccnc3)CCC[C@@H]12 [KH007] | 0 to 20% | 40 to 60% | – | – |
| C[C@@]1(O)CC[C@H]2[C@H](CC[C@@H]3[C@@H]2CC[C@]2(C)[C@@H](C(=O)COc4nc[nH]n4)CCC[C@@H]32)C1 [KH051] | 0 to 20% | 0 to 20% | – | – |
| Cc1nnn(CC(=O)[C@H]2CCC[C@H]3[C@@H]4CC[C@H]5C[C@H](O)CC[C@]5(C)[C@H]4CC[C@]23C)n1 [KH018] | 0 to 20% | 20 to 40% | – | – |
| C[C@]12CC[C@@H](O)C[C@@H]1CC[C@@H]1[C@@H]2CC[C@]2(C)[C@@H](C(=O)Cn3ccc4ccccc43)CCC[C@@H]12 [KH009] | 20 to 40% | > 80% | – | – |

| SMILES | Emax at 0.1 µM (HEK293) | Emax at 1 µM (HEK293) | Emax (HEK293, together with 3 μmol GABA, relative to peak current in 100 μmol GABA) | EC50 (together with 3 μmol GABA) |
| --- | --- | --- | --- | --- |
| Cn1nnnc1SCC(=O)[C@H]1CCC[C@H]2[C@@H]3CC[C@H]4C[C@](C)(O)CC[C@]4(C)[C@H]3CC[C@]12C [KH031] | 0 to 20% | 40 to 60% | – | – |
| C[C@@]1(O)CC[C@@]2(C)[C@@H](CC[C@@H]3[C@@H]2CC[C@]2(C)[C@@H](C(=O)COc4ncnc5cnc(F)cc45)CCC[C@@H]32)C1 [KH036] | 0 to 20% | 0 to 20% | – | – |
| C[C@@]1(O)CC[C@@]2(C)[C@@H](CC[C@@H]3[C@@H]2CC[C@]2(C)[C@@H](C(=O)COc4ccc5ccccc5n4)CCC[C@@H]32)C1 [KH033] | 0 to 20% | 20 to 40% | – | – |
| C[C@@]1(O)CC[C@@]2(C)[C@@H](CC[C@@H]3[C@@H]2CC[C@]2(C)[C@@H](C(=O)C(n4cc(C#N)cn4)n4cc(C#N)cn4)CCC[C@@H]32)C1 [KH027] | 0 to 20% | 0 to 20% | – | – |
| C[C@]12CC[C@@H](O)C[C@@H]1CC[C@@H]1[C@@H]2CC[C@]2(C)[C@@H](C(=O)CSc3cccs3)CCC[C@@H]12 [KH016] | 0 to 20% | 40 to 60% | – | – |
| C[C@]12CC[C@@H](O)C[C@@H]1CC[C@@H]1[C@@H]2CC[C@]2(C)[C@@H](C(=O)Cn3cc(Cl)cn3)CCC[C@@H]12 [KH013] | 0 to 20% | 0 to 20% | – | – |
| C[C@@]1(O)CC[C@@]2(C)[C@@H](CC[C@@H]3[C@@H]2CC[C@]2(C)[C@@H](C(=O)Cn4nccn4)CCC[C@@H]32)C1 [KH043] | 0 to 20% | 20 to 40% | – | – |
| Cc1nnnn1CC(=O)[C@H]1CCC[C@H]2[C@@H]3CC[C@H]4C[C@H](O)CC[C@]4(C)[C@H]3CC[C@]12C [KH019] | 0 to 20% | 0 to 20% | – | – |
| Cn1cnnc1SCC(=O)[C@H]1CCC[C@H]2[C@@H]3CC[C@H]4C[C@](C)(O)CC[C@]4(C)[C@H]3CC[C@]12C [KH037] | 0 to 20% | 0 to 20% | – | – |
| C[C@]12CC[C@@H](O)C[C@@H]1CC[C@@H]1[C@@H]2CC[C@]2(C)[C@@H](C(=O)Cn3ncc4ccccc43)CCC[C@@H]12 [KH011] | 20 to 40% | 60 to 80% | – | – |
| C[C@]12CC[C@@H](O)C[C@@H]1CC[C@@H]1[C@@H]2CC[C@]2(C)[C@@H](C(=O)Cn3cccn3)CCC[C@@H]12 [KH006] | 20 to 40% | 40 to 60% | – | – |
| C[C@]12CC[C@@H](O)C[C@@H]1CC[C@@H]1[C@@H]2CC[C@]2(C)[C@@H](C(=O)Cn3cnnn3)CCC[C@@H]12 [KH005] | 20 to 40% | 60 to 80% | – | – |
| COc1nnc(OCC(=O)[C@H]2CCC[C@H]3[C@@H]4CC[C@H]5C[C@](C)(O)CC[C@]5(C)[C@H]4CC[C@]23C)n1C [KH030] | 0 to 20% | 0 to 20% | – | – |
| C[C@@]1(O)CC[C@@]2(C)[C@@H](CC[C@@H]3[C@@H]2CC[C@]2(C)[C@@H](C(=O)Cn4cc(C#N)cn4)CCC[C@@H]32)C1 [KH040] | 0 to 20% | 20 to 40% | – | – |
| C[C@]12CC[C@@H](O)C[C@@H]1CC[C@@H]1[C@@H]2CC[C@]2(C)[C@@H](C(=O)Cn3cnc4ncnc(Cl)c43)CCC[C@@H]12 [KH015] | 0 to 20% | 0 to 20% | – | – |
| COc1ncnc2ncn(CC(=O)[C@H]3CCC[C@H]4[C@@H]5CC[C@H]6C[C@H](O)CC[C@]6(C)[C@H]5CC[C@]34C)c12 [KH017] | 0 to 20% | 0 to 20% | – | – |
| C[C@@]1(O)CC[C@@]2(C)[C@@H](CC[C@@H]3[C@@H]2CC[C@]2(C)[C@@H](C(=O)CSc4cccs4)CCC[C@@H]32)C1 [KH041] | 0 to 20% | 60 to 80% | – | – |
| C[C@@]1(O)CC[C@@]2(C)[C@@H](CC[C@@H]3[C@@H]2CC[C@]2(C)[C@@H](C(=O)COc4nc[nH]n4)CCC[C@@H]32)C1 [KH034] | 0 to 20% | 0 to 20% | – | – |
